Data as given in patent US20240270762A1, “PENICILLIN-BINDING PROTEIN INHIBITORS” (priority 2021, published 2024).
≈ marks a conversion by molar mass, not a printed value.

Columns and labels:
N. gonorrhoeae MS11 = assay: Liquid broth MIC in Fastidious broth; conditions: Neisseria gonorrhoeae, MS11, read-out: Minimum Inhibitory Concentration (MIC), N. gonorrhoeae MS11
P. aeruginosa ATCC 27853 = assay: microbe, parasite or virus in culture; format: cell-based; conditions: Pseudomonas aeruginosa, ATCC27853, read-out: MIC P. aeruginosa ATCC 27853
E. coli D22 = assay: microbe, parasite or virus in culture; format: cell-based; conditions: Escherichia coli, D22, read-out: MIC E. coli D22
N. gonorrhoeae WHO G = assay: Liquid broth MIC in Fastidious broth; conditions: Neisseria gonorrhoeae, read-out: Minimum Inhibitory Concentration (MIC), N. gonorrhoeae WHO G
E. coli ATCC 25922 = assay: microbe, parasite or virus in culture; format: cell-based; conditions: Escherichia coli, ATCC25922, read-out: MIC E. coli 25922
N. gonorrhoeae WHO K = assay: Liquid broth MIC in Fastidious broth; conditions: Neisseria gonorrhoeae, read-out: Minimum Inhibitory Concentration (MIC), N. gonorrhoeae WHO K
K. pneumoniae UMM = assay: microbe, parasite or virus in culture; format: cell-based; conditions: Klebsiella pneumoniae, read-out: MIC K. pneumoniae UMM
N. gonorrhoeae CDC-0197 = assay: Liquid broth MIC in Fastidious broth; conditions: Neisseria gonorrhoeae, CDC0197, read-out: Minimum Inhibitory Concentration (MIC), N. gonorrhoeae CDC-0197
Procedure: ATCC 49226, FA1090, MS11, WHO G, WHO L, and WHO M produce wild type or wild-type like PBP2. WHO K, WHO X, WHO Z, WHO Q, and CDC-0197 produce mosaic PBP2. Liquid broth-based assays were used for antibacterial testing of PBP inhibitors in Neisseria gonorrhoeae. Briefly, cryo-preserved bacterial cultures of clinical strains were streaked for isolation on Chocolate Agar (72 g/L (2×) GC Agar Base (BD #228950) and 2% (2×) Hemoglobin was autoclaved at 121° C. for 20 minutes to sterilize. Once cooled to ˜50° C. the 2×GC Agar Base and 2× Hemoglobin solutions are combined and 1% IsoVitaleX Enrichment (BD #211876) was added to the solution). Strains were incubated at 36° C. and 5% CO2 to allow growth of colonies, 24 hours before inoculum preparation. 2-fold serial dilutions of test compounds were conducted in a 96 well plate with a final volume of 75 μL per well at 2-fold the final desired concentration in Fastidious broth (Remel #R07664). For preparation of assay inoculum, a direct suspension was prepared by aseptically swabbing 10-15 colonies from agar plates into culture tubes containing 2 mL of fresh sterile saline. After the dilution plates were set up, direct suspensions were then diluted in a cuvette containing sterile saline and the optical density was measured at 600 nm. Inocula were diluted such that 75 μL of this culture in Fastidious broth results in a starting bacterial concentration of 5×10^5 CFU/mL when added to the dilution plates. The plates were incubated for ˜24 hours at 36° C. and 5% CO2.

| SMILES | MIC (N. gonorrhoeae MS11) [µg/mL] | MIC (P. aeruginosa ATCC 27853) [µg/mL] | MIC (E. coli D22) [µg/mL] | MIC (N. gonorrhoeae WHO G) [µg/mL] | MIC (E. coli ATCC 25922) [µg/mL] | MIC (N. gonorrhoeae WHO K) [µg/mL] | MIC (K. pneumoniae UMM) [µg/mL] | MIC (N. gonorrhoeae CDC-0197) [µg/mL] |
| --- | --- | --- | --- | --- | --- | --- | --- | --- |
| Nc1ncc(C(=O)N[C@@H](C(=O)N[C@H]2Cc3cccc(C(=O)O)c3OB2O)c2ccc(P(=O)(O)O)cc2)s1 (racemic) [Example 50, (R)-3-((S)-2-(2-aminothiazole-5-carboxamido)-2-(4-phosphonophenyl)acetamido)-2-hydroxy-3,4-dihydro-2H-benzo[e][1,2]oxaborinine-8-carboxylic acid and (R)-3-((R)-2-(2-aminothiazole-5-carboxamido)-2-(4-phosphonophenyl)acetamido)-2-hydroxy-3,4-dihydro-2H-benzo[e][1,2]oxaborinine-8-carboxylic acid] | 4 to 8 (≈ 7.32 to 14.6 µM) | > 128 | 32 to 64 (≈ 58.6 to 117 µM) | 1 to 2 (≈ 1.83 to 3.66 µM) | > 128 | 16 to 32 (≈ 29.3 to 58.6 µM) | > 128 | 16 to 32 (≈ 29.3 to 58.6 µM) |
| CN1CCC[C@@H]1C(=O)N[C@@H](C(=O)N[C@H]1Cc2cccc(C(=O)O)c2OB1O)c1ccc(P(=O)(O)O)cc1 (racemic) [Example 54, (R)-2-hydroxy-3-((S)-2-((R)-1-methylpyrrolidine-2-carboxamido)-2-(4-phosphonophenyl)acetamido)-3,4-dihydro-2H-benzo[e][1,2]oxaborinine-8-carboxylic acid and (R)-2-hydroxy-3-((R)-2-((R)-1-methylpyrrolidine-2-carboxamido)-2-(4-phosphonophenyl)acetamido)-3,4-dihydro-2H-benzo[e][1,2]oxaborinine-8-carboxylic acid] | 16 to 32 (≈ 30.1 to 60.2 µM) | > 128 | > 128 | 16 to 32 (≈ 30.1 to 60.2 µM) | > 128 | 16 to 32 (≈ 30.1 to 60.2 µM) | > 128 | 4 to 8 (≈ 7.53 to 15.1 µM) |
| CCN1CCN(C(=O)N[C@H](C(=O)N[C@H]2Cc3ccc(F)c(C(=O)O)c3OB2O)c2ccc(P(=O)(O)O)cc2)C(=O)C1=O (single isomer, unassigned) [Example 9] | 1 to 2 (≈ 1.65 to 3.3 µM) | > 128 | 32 to 64 (≈ 52.8 to 106 µM) | < 1 | > 128 | 1 to 2 (≈ 1.65 to 3.3 µM) | > 128 | < 1 |
| Cn1cccc(C(=O)N[C@H](C(=O)N[C@H]2Cc3cccc(C(=O)O)c3OB2O)c2ccc(P(=O)(O)O)cc2)c1=O (single isomer, unassigned) [Example 181] | 4 to 8 (≈ 7.2 to 14.4 µM) | > 128 | > 128 | 4 to 8 (≈ 7.2 to 14.4 µM) | > 128 | 16 to 32 (≈ 28.8 to 57.6 µM) | > 128 | 16 to 32 (≈ 28.8 to 57.6 µM) |
| O=C(O)c1cccc2c1OB(O)[C@@H](NC(=O)[C@@H](NC(=O)c1cccn(C(F)F)c1=O)c1ccc(P(=O)(O)O)cc1)C2 (single isomer, unassigned) [Example 190] | 4 to 8 (≈ 6.77 to 13.5 µM) | > 128 | 32 to 64 (≈ 54.1 to 108 µM) | 1 to 2 (≈ 1.69 to 3.38 µM) | > 128 | 16 to 32 (≈ 27.1 to 54.1 µM) | > 128 | 4 to 8 (≈ 6.77 to 13.5 µM) |
| O=C(O)c1cccc2c1OB(O)[C@@H](NC(=O)[C@H](NC(=O)c1cccn(C(F)F)c1=O)c1ccc(P(=O)(O)O)cc1)C2 (single isomer, unassigned) [Example 191] | 1 to 2 (≈ 1.69 to 3.38 µM) | > 128 | 8 to 16 (≈ 13.5 to 27.1 µM) | < 1 | > 128 | 4 to 8 (≈ 6.77 to 13.5 µM) | > 128 | 1 to 2 (≈ 1.69 to 3.38 µM) |
| O=C(O)c1cccc2c1OB(O)[C@@H](NC(=O)[C@@H](NC(=O)c1cnc3sccn3c1=O)c1ccc(P(=O)(O)O)cc1)C2 (single isomer, unassigned) [Example 194] | 4 to 8 (≈ 6.69 to 13.4 µM) | > 128 | 32 to 64 (≈ 53.5 to 107 µM) | 4 to 8 (≈ 6.69 to 13.4 µM) | > 128 | 16 to 32 (≈ 26.7 to 53.5 µM) | > 128 | 16 to 32 (≈ 26.7 to 53.5 µM) |
| O=C(O)c1cccc2c1OB(O)[C@@H](NC(=O)[C@H](NC(=O)c1cnc3sccn3c1=O)c1ccc(P(=O)(O)O)cc1)C2 (single isomer, unassigned) [Example 195] | 4 to 8 (≈ 6.69 to 13.4 µM) | 32 to 64 (≈ 53.5 to 107 µM) | 8 to 16 (≈ 13.4 to 26.7 µM) | 1 to 2 (≈ 1.67 to 3.34 µM) | > 128 | 16 to 32 (≈ 26.7 to 53.5 µM) | > 128 | 4 to 8 (≈ 6.69 to 13.4 µM) |
| O=C(O)c1cccc2c1OB(O)[C@@H](NC(=O)C(NC(=O)[C@H]1CCCN1)c1ccc(P(=O)(O)O)cc1)C2 (stereo partly drawn) [Example 52, (3R)-2-hydroxy-3-(2-(4-phosphonophenyl)-2-((R)-pyrrolidine-2-carboxamido)acetamido)-3,4-dihydro-2H-benzo[e][1,2]oxaborinine-8-carboxylic acid] | 16 to 32 (≈ 30.9 to 61.9 µM) | > 128 | 32 to 64 (≈ 61.9 to 124 µM) | 16 to 32 (≈ 30.9 to 61.9 µM) | > 128 | 16 to 32 (≈ 30.9 to 61.9 µM) | 32 to 64 (≈ 61.9 to 124 µM) | 16 to 32 (≈ 30.9 to 61.9 µM) |
